In brackets after ≈: the same amount, converted by molar mass.

The values that follow come from patent US5874436A, “Triphenylalkyl antimicrobial agents” (priority 1997, dated 1999).

One experiment concerns the target T1, Kinase A and Spo0F (Bacillus subtilis, UniProt P16497).
T1 construct: made in house; host or cells: E. coli (recombinant, overexpressing)
T1 sequence (P16497 1-606): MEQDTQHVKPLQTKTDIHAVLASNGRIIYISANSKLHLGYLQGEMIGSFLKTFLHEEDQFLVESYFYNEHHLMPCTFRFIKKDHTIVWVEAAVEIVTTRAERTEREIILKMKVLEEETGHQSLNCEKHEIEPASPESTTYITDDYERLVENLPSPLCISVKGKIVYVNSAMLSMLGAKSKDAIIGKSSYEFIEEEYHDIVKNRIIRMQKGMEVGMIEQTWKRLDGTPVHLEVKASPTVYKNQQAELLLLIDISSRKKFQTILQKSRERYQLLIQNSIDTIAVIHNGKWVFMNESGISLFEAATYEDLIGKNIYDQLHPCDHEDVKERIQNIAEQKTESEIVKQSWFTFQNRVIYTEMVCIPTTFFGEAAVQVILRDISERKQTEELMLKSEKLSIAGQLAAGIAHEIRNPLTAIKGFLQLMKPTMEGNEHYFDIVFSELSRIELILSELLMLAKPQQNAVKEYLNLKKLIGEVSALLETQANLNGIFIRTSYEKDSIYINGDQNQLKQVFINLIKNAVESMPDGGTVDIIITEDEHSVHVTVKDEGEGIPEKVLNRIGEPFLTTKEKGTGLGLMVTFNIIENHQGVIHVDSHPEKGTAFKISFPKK
Put plainly: Autophosphorylation of Kinase A and transphosphorylation of Spo0F assay (HPK in vitro assay). The experiment is classed as biochemical. The following applies: inhibitor concentrations from 1 to 500 μM, [32P]ATP, phosphoimager. How it is done: 1. Autophosphorylation of Kinase A and Transphosphorylation of Spo0F Assay
To study the effect of the compounds of the present invention on the signal transduction process in bacteria, the inhibiting effect of the compounds on the sporulation operon proteins Kinase A and Spo0F was examined. Specifically, the inhibition of autophosphorylation of Kinase A and the transphosphorylation of Spo0F was determined in the following assays. The Spo0F response regulator is the primary substrate for phosphorylation by the protein kinase, Kin A, involved in the sporulation process in bacteria. See D. Burbulys, K. A. Trach, J. A. Hoch, Cell, 64, 545-552 (1991). Spo0F and KinA were prepared from recombinant E. coli overexpressing the proteins (J. Cavanagh et al, Amino Acids, 6, 131-140 (1994) and references therein).
The following stock reagents were either prepared and used promptly or stored at the indicated temperature:
8 X Salts : 2M KCl (5 mL), 1M MgCl2 (800 mL), 1M CaCl2 (100 mL), 10 mg/mL phenylmethylsulfonyl fluoride (200 mL), 1 M dithioreitol (50 mL), 0.25M Na2 EDTA (32 mL) and H2 O mL (-20° C.)
5×Loading Dye: 0.5M TRIS-HCl-pH 6.8 (7.5 mL), 10% SDS (2 mL) 0.1% bromophenol blue (0.5 mL), 100% glycerol (3 mL) and 12.5 M 2-mercaptoethanol (0.3 mL)
1-1.3 mg/mL KinA:15 mM TRIS-HCl, pH 8.0, 6 mM KCl; 4 mM 2-mercaptoethanol; 40% glycerol (-20° C.)
1 mg/mL Spo0F: 17.5 mM TRIS-HCl, pH 8.0; 0.7 mM KCl; 0.7 mM MgCl2; 0.7 mM CaCl2; 5mM 2-mercaptoethanol; 30% Glycerol (-20° C.)
5% Stacking Gel: 40% 29:1 acrylamide:bis acrylamide (1.25 mL), 0.5M TRIS-HCl, pH 6.8 (2.5 mL), 10% SDS (0.1 mL), D-H2 O (6.15 mL) 10% ammonium persulfate (100 mL) and TEMED (25 mL) SDS Running Buffer: TRIS-BASE (3.02 g), glycine (14.4 g) SDS (1 g), D-H2 O (to 1L)
The reaction mixture was prepared from 8×Salts (87 μL), 1M TRIS, pH 8 (118 μL), 50% glycerol (63 μL), Spo0F (14.1 μL) and KinA (7.0 μL). Microcentrifuge tubes were charged with the reaction mixture (18.5 μL) and a 1.0 mM solution of the test compound in 5% DMSO (18.5 μL), and incubated for 15 min on ice. 100 mM ATP solution (3.0 μl, containing 625 μCi [^32 P]ATP) was added, and the mixture left for 10 minutes at room temperature. The reaction was quenched with 5×loading dye (10 μL per tube) and the samples were loaded on a prepared 5% Stacking Gel, or stored on dry ice until ready for use. The prepared wells were filled with SDS Running Buffer, samples were loaded into the wells, and 80 volts were applied to the gel until the dye front reached the bottom of the stacking gel. The voltage was then increased to 250 volts until electrophoresis was complete. Radioactive bands in the gel corresponding to phosphorylated KinA and Spo0F were imaged and quantitated with a phosphoimager.
If either enzyme was inhibited (as evidenced by the absence of labelled protein in the developed gel), an IC50 was calculated by running the assay with a range of inhibitor concentrations from 1 to 500 μM. After electrophoresis of the reaction mixtures, percent inhibition was determined by measuring the concentration of radioactive phosphorus with a phosphoimager and calculating the values using a software program (BioRad Molecular Analyst).

A further experiment deals with selected microorganisms. In words: MIC antimicrobial assay (NCCLS microdilution broth method). The experiment is classed as cell-based. On the procedure:
2. MIC Anitimicrobial Assay
The in vitro antimicrobial activity of the compounds was determined by the microdilution broth method following the test method from the National Committee for Laboratory Standards (NCCLS). This method is described in the NCCLS Document M7-A2, Vol.10, No.8 "Methods for Dilution Antimicrobial Susceptibility Test for Bacteria that Grow Aerobically--Second Edition."
In this method two-fold serial dilutions of drug in cation supplemented Mueller-Hinton broth are added to wells in microdilution trays. The test organisms are prepared by adjusting the turbidity of actively growing broth cultures so that the final concentration of test organism after it is added to the wells is approximately 5×10^4 CFUs/well).
Following inoculation of the microdilution trays, the trays are incubated at 35° C. for 16-20 hours and then read. […] The amount of growth in the wells containing the test compound is compared with the amount of growth in the growth-control wells (no test compound) used in each tray.

The term IC50 denotes the concentration needed to halve the response being measured. Low readings indicate greater potency in that assay, high ones weaker potency in that assay. As usually defined, the MIC is the lowest concentration found to suppress growth. Read a high MIC as a less susceptible organism. As to `O=C(O)/C=C/c1ccc(OCCC(c2ccccc2)(c2ccccc2)c2ccccc2)cc1` [Example 22, trans 4-(3,3,3-Triphenylpropoxy)cinnamic acid], the IC50 at Kinase A and Spo0F came out at 71 µM. Further, the MIC in the experiment on selected microorganisms lay within 4 to 64 µg/mL (≈ 9.21 to 147 µM).

On to `O=C(O)c1ccc2cc(OCCC(c3ccccc3)(c3ccccc3)c3ccccc3)ccc2c1` [Example 17, 6-(3,3,3-Triphenylpropoxy)-2-naphthoic acid], for which the IC50 on Kinase A and Spo0F was 300 µM. Besides, the MIC against selected microorganisms was in the range of 4 to 64 µg/mL (≈ 8.72 to 140 µM).

Turning to `O=C(O)Cc1cccc(OCCC(c2ccccc2)(c2ccccc2)c2ccccc2)c1` [Example 34, 2-[3-(3,3,3-Triphenylpropoxy)phenyl]acetic acid], at Kinase A and Spo0F, the IC50 came to 38 µM. Besides, the MIC against selected microorganisms came to 32 µg/mL (≈ 75.7 µM).

Consider `COc1ccc(CCN)cc1OCCC(c1ccccc1)(c1ccccc1)c1ccccc1` [Example 8, 2-(4-methoxy-3-(3,3,3-triphenylpropoxy)-phenyl)ethylamine], for which the IC50 on Kinase A and Spo0F came out at 27 µM. 4 µg/mL (≈ 9.14 µM) was the least that counted as inhibitory in the experiment with selected microorganisms (MIC).

Regarding `O=C(CCc1ccc(O)cc1)OCCC(c1ccccc1)(c1ccccc1)c1ccccc1` [Example 24, 3,3,3-Triphenylpropyl 3-(4-hydroxyphenyl)propionate], the IC50 against Kinase A and Spo0F came to 160 µM. For the same compound, the MIC against selected microorganisms was more than 128 µg/mL.
